Assay results published in patent US20240376097A1, “BCL-2 Inhibitor” (BeiGene Ltd., priority 2020, published 2024).
Where two headings read alike, the source gives them in different places.

Columns and labels:
[1] = molecular target: Recombinant human Bcl-2 protein (Homo sapiens (Human), UniProt P10415); experiment: Bcl-2 TR-FRET Assay; assay type: binding
Outline: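 In pH 7.5 phosphate buffer containing NaCl, EDTA, Tween-20 and BSA, 0.05 nM Bcl-2 saw serially diluted compound for 0.5 h before 0.5 nM FITC-Bak peptide was added. Signal ratio at 520/490 nm after 1 h yielded IC50.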

[2] = molecular target: recombinant human Bcl-2-G101V protein (Homo sapiens (Human), UniProt P10415, G101V); experiment: Bcl-2-G101V TR-FRET Assay; assay type: binding; conditions: Bcl-2 G101V mutant, TR-FRET; read-out: Biochemical assay (IC50, nM) Bcl-2 G101V
Outline: (§1)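 TR-FRET read at excitation 337 nm with emission at 490 nm and 520 nm. Inhibition of Bcl-2-G101V binding to its ligand across increasing compound concentrations was calculated from the 490/520 nm fluorescence ratio, and IC50 values came from four-parameter logistic fits.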

[3] = tested on: recombinant human Bcl-2-G101V protein; experiment: Bcl-2-G101V TR-FRET Assay; assay type: binding; conditions: ratio of biochemical IC50 Bcl-2 G101V / Bcl-2 WT
Outline: as §1

[4] = tested on: RS4;11 (BCL-2 dependent acute lymphoblastic leukemia cell line); experiment: RS4;11 Cell Proliferation Assay; assay type: cell-based; conditions: Homo sapiens, RS4-11, RS4;11 cells, read-out: Cellular proliferation assay (IC50, nM) RS4
Outline: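 Viability measured via CellTiter-Glo luminescence after a 48 h, 37 °C exposure to compounds (10 points, highest 1 μM). Seeding was 50,000 RS4;11 cells per well in 10% FBS RPMI-1640; IC50 given as mean.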

[5] = tested on: BCL-2 G101V knock-in cell line H96 (derive from RS4;11); experiment: Bcl 2-G101V Knock-In RS4;11 Cell Proliferation Assay; assay type: cell-based; conditions: Homo sapiens, RS4;11 Bcl-2 G101V knock-in clone H96, 48 hrs, CellTiter-GLO, read-out: Cellular proliferation assay (IC50, nM) RS4
Outline: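 CellTiter-Glo luminescence after 48 h, 37 °C compound treatment (10 concentrations, maximum 1 μM or 10 μM) gave mean IC50 values. Cells were 50,000 per well of H96, a BCL2-G101V knock-in single clone derived from RS4;11 by Cas9 editing.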

[6] = molecular target: recombinant human Bcl-2 D103Y protein (Homo sapiens (Human), UniProt P10415, D103Y); experiment: Bcl-2-D103Y Biochemical Assay (TR-FRET); assay type: binding; conditions: for IC50: TR-FRET, FITC labeled Bak peptide; for Ratio of Bcl-2 D103Y/Bcl-2 WT: ratio of IC50
Outline: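 Compounds titrated against the Bcl-2 D103Y–ligand interaction; inhibition derived from the TR-FRET emission ratio 490 nm/520 nm after 337 nm excitation. Four-parameter logistic fitting gave IC50.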

[7] = Bcl-2 wild type, TR-FRET, read-out: Biochemical assay (IC50, nM) Bcl-2 WT
[8] = wild type Bcl-2, unit inferred, read-out: Bcl-2 WT

Compound	IC50 [1, 7] [nM]	IC50 [1, 8] [nM]	IC50 [2] [nM]	Ratio of Bcl-2 G101V/WT [3]	IC50 [4] [nM]	IC50 [5] [nM]	IC50 [6] [nM]	Ratio of Bcl-2 D103Y/Bcl-2 WT [6]
CC(C)c1ccccc1[C@@H]1CN(Cc2ccc3c(c2)OCC3)CCN1C1CC2(CCN(c3ccc(C(=O)NS(=O)(=O)c4ccc(NC[C@H]5CC[C@](C)(O)CC5)c([N+](=O)[O-])c4)c(Oc4cnc5[nH]ccc5c4)c3)CC2)C1 [Example 304, 2-((1H-pyrrolo[2,3-b]pyridin-5-yl)oxy)-4-(2-((R)-4-((2,3-dihydrobenzofuran-6-yl)methyl)-2-(2-isopropylphenyl)piperazin-1-yl)-7-azaspiro[3.5]nonan-7-yl)-N-((4-((((1r,4r)-4-hydroxy-4-methylcyclohexyl)methyl)amino)-3-nitrophenyl)sulfonyl)benzamide]	0.13	0.13	0.41	3.2	0.3	2.3	0.22	1.8
COc1cc(CN2CCN(C3CC4(C3)CN(c3ccc(C(=O)NS(=O)(=O)c5ccc(NC[C@H]6CC[C@](C)(O)CC6)c([N+](=O)[O-])c5)c(Oc5cnc6[nH]cc(F)c6c5)c3)C4)[C@H](c3ccccc3C(C)C)C2)cc2ccoc12 [Example 306, 2-((3-fluoro-1H-pyrrolo[2,3-b]pyridin-5-yl)oxy)-N-((4-((((1r,4r)-4-hydroxy-4-methylcyclohexyl)methyl)amino)-3-nitrophenyl)sulfonyl)-4-(6-((R)-2-(2-isopropylphenyl)-4-((7-methoxybenzofuran-5-yl)methyl)piperazin-1-yl)-2-azaspiro[3.3]heptan-2-yl)benzamide]	0.31	0.31	0.97	3.1	0.12	0.15	0.31	1.0
COc1cc(CN2CCN(C3CC4(C3)CN(c3ccc(C(=O)NS(=O)(=O)c5ccc(NC[C@H]6CC[C@](C)(O)CC6)c([N+](=O)[O-])c5)c(Oc5cnc6[nH]ccc6c5)c3)C4)[C@H](c3ccccc3C(C)C)C2)cc2ccoc12 [Example 307, 2-((1H-pyrrolo[2,3-b]pyridin-5-yl)oxy)-N-((4-((((1r,4r)-4-hydroxy-4-methylcyclohexyl)methyl)amino)-3-nitrophenyl)sulfonyl)-4-(6-((R)-2-(2-isopropylphenyl)-4-((7-methoxybenzofuran-5-yl)methyl)piperazin-1-yl)-2-azaspiro[3.3]heptan-2-yl)benzamide]	0.17	0.17	0.43	2.5	0.11	0.17	0.18	1.1
CC(C)c1ccccc1[C@@H]1CN(Cc2ccnc3c2OCC(C)(C)O3)CCN1C1CC2(C1)CN(c1ccc(C(=O)NS(=O)(=O)c3ccc(NC[C@H]4CC[C@](C)(O)CC4)c([N+](=O)[O-])c3)c(Oc3cnc4[nH]cc(F)c4c3)c1)C2 [Example 317]	0.033	0.033	0.12	3.6	0.19	0.43	0.057	1.7
COc1cc(CN2CCN(C3CC4(C3)CN(c3ccc(C(=O)NS(=O)(=O)c5ccc(NC[C@H]6CC[C@](C)(O)CC6)c([N+](=O)[O-])c5)c(Oc5cnc6[nH]ccc6c5)c3)C4)[C@H](c3ccccc3C(C)C)C2)cc2c1OCCC2 [Example 318, 2-((1H-pyrrolo[2,3-b]pyridin-5-yl)oxy)-N-((4-((((1r,4r)-4-hydroxy-4-methylcyclohexyl)methyl)amino)-3-nitrophenyl)sulfonyl)-4-(6-((R)-2-(2-isopropylphenyl)-4-((8-methoxychroman-6-yl)methyl)piperazin-1-yl)-2-azaspiro[3.3]heptan-2-yl)benzamide]	0.056	0.056	0.16	2.9	0.2	0.31	0.052	0.9
COc1cc(CN2CCN(C3CC4(C3)CN(c3ccc(C(=O)NS(=O)(=O)c5ccc(NCC6CCOCC6)c([N+](=O)[O-])c5)c(Oc5cnc6[nH]ccc6c5)c3)C4)[C@H](c3ccccc3C(C)C)C2)ccc1C1CC1 [Example 319]	0.25	0.25	0.85	3.3	0.24	0.84	0.42	1.7
COc1cc(CN2CCN(C3CC4(C3)CN(c3ccc(C(=O)NS(=O)(=O)c5ccc(NCC6CCOCC6)c([N+](=O)[O-])c5)c(Oc5cnc6[nH]cc(F)c6c5)c3)C4)[C@H](c3ccccc3C(C)C)C2)ccc1C1CC1 [Example 320, (R)-4-(6-(4-(4-cyclopropyl-3-methoxybenzyl)-2-(2-isopropylphenyl)piperazin-1-yl)-2-azaspiro[3.3]heptan-2-yl)-2-((3-fluoro-1H-pyrrolo[2,3-b]pyridin-5-yl)oxy)-N-((3-nitro-4-(((tetrahydro-2H-pyran-4-yl)methyl)amino)phenyl)sulfonyl) benzamide]	0.55	0.55	1.7	3.1	0.19	0.47	0.52	0.93
[2H]C([2H])([2H])Oc1cc(CN2CCN(C3CC4(C3)CN(c3ccc(C(=O)NS(=O)(=O)c5ccc(NC[C@H]6CC[C@](C)(O)CC6)c([N+](=O)[O-])c5)c(Oc5cnc6[nH]cc(F)c6c5)c3)C4)[C@H](c3ccccc3C(C)C)C2)cc2ccoc12 [Example 322, 2-((3-fluoro-1H-pyrrolo[2,3-b]pyridin-5-yl)oxy)-N-((4-((((1r,4r)-4-hydroxy-4-methylcyclohexyl)methyl)amino)-3-nitrophenyl)sulfonyl)-4-(6-((R)-2-(2-isopropylphenyl)-4-((7-(methoxy-d3)benzofuran-5-yl)methyl)piperazin-1-yl)-2-azaspiro[3.3]heptan-2-yl)benzamide]	0.25	0.25	0.72	2.9	0.18	0.32	0.36	1.4
[2H]C([2H])([2H])Oc1cc(CN2CCN(C3CC4(C3)CN(c3ccc(C(=O)NS(=O)(=O)c5ccc(NC[C@H]6CC[C@](C)(O)CC6)c([N+](=O)[O-])c5)c(Oc5cnc6[nH]ccc6c5)c3)C4)[C@H](c3ccccc3C(C)C)C2)cc2ccoc12 [Example 323, 2-((1H-pyrrolo[2,3-b]pyridin-5-yl)oxy)-N-((4-((((1r,4r)-4-hydroxy-4-methylcyclohexyl)methyl)amino)-3-nitrophenyl)sulfonyl)-4-(6-((R)-2-(2-isopropylphenyl)-4-((7-(methoxy-d3)benzofuran-5-yl)methyl)piperazin-1-yl)-2-azaspiro [3.3]heptan-2-yl)benzamide]	0.22	0.22	0.45	2.1	0.21	0.42	0.19	0.87
[2H]C([2H])([2H])Oc1cc(CN2CCN(C3CC4(C3)CN(c3ccc(C(=O)NS(=O)(=O)c5ccc(NC[C@H]6CC[C@](C)(O)CC6)c([N+](=O)[O-])c5)c(Oc5cnc6[nH]ccc6c5)c3)C4)[C@H](c3ccccc3C(C)C)C2)cc2c1OCC2(C)C [Example 324, 2-((1H-pyrrolo[2,3-b]pyridin-5-yl)oxy)-N-((4-((((1r,4r)-4-hydroxy-4-methylcyclohexyl)methyl)amino)-3-nitrophenyl)sulfonyl)-4-(6-((R)-2-(2-isopropylphenyl)-4-((7-(methoxy-d3)-3,3-dimethyl-2,3-dihydrobenzofuran-5-yl)methyl)piperazin-1-yl)-2-azaspiro[3.3]heptan-2-yl)benzamide]	0.16	0.16	0.31	1.9	0.22	0.51	0.14	0.87
